Measured values reported in article PMC10304178, “Influence of Polyvinylpyrrolidone Molecular Weight and Concentration on the Precipitation Inhibition of Supersaturated Solutions of Poorly Soluble Drugs” (Pharmaceutics, 2023).

How the values were obtained:
[1] = Equilibrium solubility of the drugs in PVP solutions (shake-flask solubility test); type: physicochemical
Procedure: An excess amount of the drug was added to 15 mL corning tubes containing either pure 0.1 M phosphate buffer (pH 7.4) or 0.1, 0.5 and 1% (w/v) solutions of PVP K15, K30, K60 or […], respectively. […] The saturated solution and the precipitate were separated by centrifugation for 10 min at 13,000 rpm in an Eppendorf Centrifuge 5810 R (Hamburg, Germany), followed by filtration intro ultra-performance liquid chromatography (UPLC) vials using a syringe filter (33 mm, 0.45 μm) PVDF membrane (2 mL filter sample prewet volume), acquired from Merck (Darmstadt, Germany). The tests were conducted in triplicate. The concentration of drug in the respective samples was quantified by reverse-phase chromatography using a Waters Acquity Classic UPLC system (Milford, MA, USA) equipped with an automated sample injector, a binary pump and a tunable UV detector. All samples were analyzed using a Waters Acquity UPLC BEH C18 column (130 Å, 1.7 μm, 2.1 × 50 mm) (Milford, MA, USA) at a column temperature of 50 °C for ketoconazole and tadalafil and 80 °C for albendazole. The samples were injected with a volume of s 6 μL and subsequently eluted at a flow rate of 0.8 mL/min. For albendazole and tadalafil, eluent A was a mixture of 90% (v/v) sodium sulfate (60 mM), di-ammonium hydrogen phosphate (5.5 mM) and phosphoric acid (34.5 mM) in Milli-Q water (pH 2.3) and 10% (v/v) acetonitrile. For ketoconazole, eluent A was a mixture of 90% (v/v) sodium sulfate (60 mM), di-ammonium hydrogen phosphate (5.5 mM) and phosphoric acid (34.5 mM) in Milli-Q water (pH 7.2) and 10% (v/v) acetonitrile. For tadalafil, albendazole and ketoconazole, eluent B was a mixture of 20% (v/v) Milli-Q water and 80% (v/v) acetonitrile. Albendazole was quantified in the samples using UV at a wavelength of 229 nm, while tadalafil was quantified at 284 nm and ketoconazole at 240 nm.

[2] = Supersaturation study by solvent-shift method (µDISS Profiler): induction time and slope of time–concentration profiles; type: physicochemical; conditions: for Influence of PVP concentration on tind and slope of the time–concentration profile / Influence of viscosity of the PVP solution on tind or slope of the time–concentration profile: multiple linear regression coefficient plot, 95% confidence interval
From the text: Time-concentration profiles of the drugs in a supersaturated solution in the absence and presence of PVP were obtained to study the influence of the polymer on the onset of the nucleation and precipitation rate of the drug from a supersaturated solution. Supersaturation of the drug was induced by the use of a method previously developed. Briefly, a […] ProfilerTM (Billerica, MA, USA) was used to obtain in situ UV spectra in the range from 200 to 720 nm. Probe tip lengths of 5, 10 or 20 mm were selected to obtain an absorbance in the range between 0.3 and 1. The vials were stirred using a crossbar magnet at ~100 rpm at a temperature of 37 °C. […] The UV wavelength range used to quantify the drug was 267-288 nm for albendazole, 304-360 nm for ketoconazole and 299-328 nm for tadalafil. […] Standard curves were prepared with six replicates by adding aliquots of 15 μL DMSO stock solution of the drug to the dissolution medium. The initial concentration of the drug was determined by using the highest concentration of the drug for which no instantaneous precipitation occurred. Precipitation was detected by a deviation from the linearity of the standard curve, a sharp shift in the baseline in the UV spectrum or through visual inspection of the solution. To induce supersaturation, 100 μL of a DMSO stock solution of the drug was transferred into glass vials containing 10 mL solutions of PVP K15, K30, K60 or […]. […] The drug concentration was monitored in situ by the second derivative of the UV absorbance. The second derivative was used to minimize UV interferences from the precipitate. The experiments were ended when the concentrations of the respective drugs reached their equilibrium solubility. The induction time of the time-concentration profiles was used as a surrogate for the onset of the nucleation of the respective drugs, and the slope of the time-concentration profiles was used as a surrogate for the precipitation rate of the respective drugs. The induction time (tind) and the slope of the time-concentration profile were determined using TA Instruments Trios software (New Castle, DE, USA). The induction time of the time-concentration profile in minutes was estimated using the onset time function via the tangent. The slope of the time-concentration profile in (μg/mL)/min was estimated using the slope function. Multiple linear regression analysis was conducted using Umetrics MODDE11 pro (Glostrup, Denmark) to delineate the influence of PVP molecular weight and concentration on the onset of nucleation and the precipitation rate of albendazole, tadalafil and ketoconazole. The tind and slope from the time-concentration profiles were used as the response values, whereas PVP concentration and the viscosity of the PVP solutions were used as the input predictors. It should be noted that the viscosity of the PVP solutions is used instead of the molecular weights of PVP, and therefore, the impact of the viscosity of solutions of PVP is the same as that of the molecular weight. The three levels for the concentration factor were 0.1, 0.5 and 1% (w/v), and the four levels for the viscosity factor were the viscosities of the solutions of PVP K15, K30, K60 and […]. […] The equilibrium solubility, viscosity of the PVP solutions, tind and slope of time-concentration profile during supersaturation of the drugs are given as the mean ± standard deviation (SD). […] Microsoft Excel (Redmond, WA, USA) was used for this analysis. The criteria for determining statistical significance in all tests were set at p < 0.05.

[3] = set-up: method as in PMID 29481859; conditions: absence of polymer; cited from earlier work
[4] = same concentration of repeating monomer units of PVP K15, K30, K60 and K120 (effect of molecular weight), p > 0.05
[5] = 1 mPa.s isoviscous solutions of PVP K15, K30, K60 and K120, increasing PVP molecular weight, p < 0.05
[6] = same concentrations (0.1, 0.5, 1% w/v) of PVP K15, K30, K60 and K120 (effect of molecular weight), p > 0.05
[7] = solution of 0.1% (w/v) PVP compared to the phosphate buffer pH 7.4, 37 °C, ANOVA
[8] = solutions of 0.5 and 1% (w/v) PVP, pH 7.4, 37 °C, ANOVA p < 0.05
[9] = PVP K15, K30, K60 and K120, PVP concentration increased from 0.1 to 0.5% and again from 0.5 to 1% (w/v), ANOVA p < 0.05
[10] = PVP K15, K30, K60 and K120, concentration increased from 0.1 to 0.5% and again from 0.5 to 1% (w/v), p < 0.05
[11] = PVP K15, K30, K60 and K120 compared at the same concentration (0.1, 0.5, 1% w/v), p > 0.05

SMILES	Equilibrium solubility ([1]; increasing the concentration of PVP to 1% (w/v), p < 0.05)	Equilibrium solubility [1, 4]	Equilibrium solubility ([1]; solutions of 0.1% and 0.5% (w/v) PVP compared to phosphate buffer, p < 0.05)	Slope of the time–concentration profile (precipitation rate) ([2]; 0.1% (w/v) PVP K15 compared with PVP K30, K60 and K120, p < 0.05)	Slope of the time–concentration profile (precipitation rate) [2, 5]	Slope of the time–concentration profile (precipitation rate) ([2]; PVP K15, K30, K60 and K120, concentration increased from 0.1 to 0.5% (w/v), p < 0.05)	Induction time (tind) ([2]; PVP K15, concentration increased from 0.1 to 0.5% and again from 0.5 to 1% (w/v), p < 0.05)	Induction time (tind) ([2]; PVP K30, concentration increased from 0.1 to 0.5% (w/v), p > 0.05)	Induction time (tind) ([2]; PVP K30, concentration increased from 0.5 to 1% (w/v), p < 0.05)	Induction time (tind) ([2]; PVP K60 and K120, concentration increased from 0.1 to 0.5% and again from 0.5 to 1% (w/v), p > 0.05)	Influence of PVP concentration on tind and slope of the time–concentration profile [2]	Influence of viscosity of the PVP solution on tind or slope of the time–concentration profile [2]	Induction time (tind) [2, 6]	Equilibrium solubility [1, 7]	Equilibrium solubility [1, 8]	Induction time (tind) [2, 9]	Slope of the time–concentration profile (precipitation rate) [2, 10]	Slope of the time–concentration profile (precipitation rate) [2, 11]	Onset time of nucleation [3] [min]
CC(=O)N1CCN(c2ccc(OCC3COC(Cn4ccnc4)(c4ccc(Cl)cc4Cl)O3)cc2)CC1 (stereo not shown) [ketoconazole]	further statistically significant increase	No statistically significant increase	statistically significant increase	statistically significant difference	statistically significant difference	statistically significant difference	statistically significant increase	no statistically significant increase	statistically significant increase	no statistically significant differences	significant influence	no significant influence	no statistically significant differences						
CN1CC(=O)N2[C@H](c3ccc4c(c3)OCO4)c3[nH]c4ccccc4c3C[C@@H]2C1=O [tadalafil]		No statistically significant increase			statistically significant difference						significant influence	no significant influence	no statistically significant differences	no statistically significant increase	statistically significant increase	statistically significant increase	statistically significant difference	no statistically significant differences	
NS(=O)(=O)c1cc2c(cc1Cl)N=C(CSCc1ccccc1)NS2(=O)=O [benzthiazide]																			4
CCCSc1ccc2nc(NC(=O)OC)[nH]c2c1 [albendazole, Albendazole]		No statistically significant increase			statistically significant difference						significant influence	no significant influence	no statistically significant differences	no statistically significant increase	statistically significant increase	statistically significant increase	statistically significant difference	no statistically significant differences	
